# Laboratory results taken from patent US11597727B2 (THE REGENTS OF THE UNIVERSITY OF CALIFORNIA, priority 2018, dated 2023).
# Target: integrin α2β1 (Homo sapiens, UniProt P05556+P17301)
# Assay: HT 1080 cell adhesion assay on rat tail collagen I
# Type: cell-based
# Set-up: HT1080 (human fibrosarcoma) cells (or human airway smooth muscle cells) were detached and resuspended in serum-free DMEM; endogenous in cells; host or cells: HT1080 human fibrosarcoma cells
# Conditions: HT1080 (human fibrosarcoma) cells on rat tail collagen I, absorbance at 595 nm, triplicate; read-out: IC50s from HT 1080 Cell adhesion assay
# Description: Cell adhesion Assay: Ninety-six-well flat-bottomed tissue culture plates were coated with rat tail collagen I for 1 hour at 37° C. After incubation, wells were blocked with 1% BSA at 37° C. for 1 hour. Control wells were filled with 1% BSA. HT1080 (human fibrosarcoma) cells (or human airway smooth muscle cells) were detached and resuspended in serum-free DMEM. Cells were incubated with anti-integrin alpha2 antibody control or 10-fold dilutions of each compound with a starting concentration of 10 uM for 15 minutes at 4° C. before plating. The plates were centrifuged at 10 g for 5 minutes before incubation for 1 hour at 37° C. in humidified 5% CO2. Nonadherent cells were removed by centrifugation (top side down) at 10 g for 5 minutes. Attached cells were stained with 0.5% crystal violet, and the wells were washed with PBS. The relative number of cells in each well was evaluated after solubilization in 40 μl of 2% Triton X-100 by measuring absorbance at 595 nm in a microplate reader. All determinations were carried out in triplicate.
# Chain of integrin α2β1 (P17301 30-1181): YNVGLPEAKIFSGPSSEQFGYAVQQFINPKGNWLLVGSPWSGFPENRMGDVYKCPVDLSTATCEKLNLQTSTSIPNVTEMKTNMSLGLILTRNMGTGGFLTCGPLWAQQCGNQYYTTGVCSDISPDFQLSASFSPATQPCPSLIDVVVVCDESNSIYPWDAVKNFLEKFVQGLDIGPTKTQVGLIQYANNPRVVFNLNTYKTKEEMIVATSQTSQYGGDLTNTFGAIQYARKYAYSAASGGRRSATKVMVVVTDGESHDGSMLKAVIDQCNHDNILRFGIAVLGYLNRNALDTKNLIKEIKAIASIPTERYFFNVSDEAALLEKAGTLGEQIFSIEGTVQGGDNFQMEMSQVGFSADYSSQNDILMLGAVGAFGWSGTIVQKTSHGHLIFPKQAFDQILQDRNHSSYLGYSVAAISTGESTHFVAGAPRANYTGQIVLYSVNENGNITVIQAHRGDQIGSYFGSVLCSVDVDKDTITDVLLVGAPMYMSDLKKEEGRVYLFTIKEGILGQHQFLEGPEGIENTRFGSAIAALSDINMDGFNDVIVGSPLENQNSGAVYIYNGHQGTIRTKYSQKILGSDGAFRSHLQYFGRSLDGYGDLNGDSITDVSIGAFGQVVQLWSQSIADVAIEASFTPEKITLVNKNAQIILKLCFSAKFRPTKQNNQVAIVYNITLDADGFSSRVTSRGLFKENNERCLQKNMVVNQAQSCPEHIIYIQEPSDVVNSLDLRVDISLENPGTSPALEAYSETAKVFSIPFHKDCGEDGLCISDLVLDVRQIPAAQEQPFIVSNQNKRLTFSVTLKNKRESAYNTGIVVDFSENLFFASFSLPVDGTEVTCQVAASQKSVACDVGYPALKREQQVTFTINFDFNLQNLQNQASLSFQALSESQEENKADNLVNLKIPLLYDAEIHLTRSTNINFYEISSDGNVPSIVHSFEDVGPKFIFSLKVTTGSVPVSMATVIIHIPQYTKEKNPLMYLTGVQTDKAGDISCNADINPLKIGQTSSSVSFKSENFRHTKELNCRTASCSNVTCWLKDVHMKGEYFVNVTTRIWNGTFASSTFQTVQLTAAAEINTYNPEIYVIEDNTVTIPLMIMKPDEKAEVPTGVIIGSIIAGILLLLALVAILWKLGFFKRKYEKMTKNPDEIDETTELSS
# Chain of integrin α2β1 (P05556 21-798): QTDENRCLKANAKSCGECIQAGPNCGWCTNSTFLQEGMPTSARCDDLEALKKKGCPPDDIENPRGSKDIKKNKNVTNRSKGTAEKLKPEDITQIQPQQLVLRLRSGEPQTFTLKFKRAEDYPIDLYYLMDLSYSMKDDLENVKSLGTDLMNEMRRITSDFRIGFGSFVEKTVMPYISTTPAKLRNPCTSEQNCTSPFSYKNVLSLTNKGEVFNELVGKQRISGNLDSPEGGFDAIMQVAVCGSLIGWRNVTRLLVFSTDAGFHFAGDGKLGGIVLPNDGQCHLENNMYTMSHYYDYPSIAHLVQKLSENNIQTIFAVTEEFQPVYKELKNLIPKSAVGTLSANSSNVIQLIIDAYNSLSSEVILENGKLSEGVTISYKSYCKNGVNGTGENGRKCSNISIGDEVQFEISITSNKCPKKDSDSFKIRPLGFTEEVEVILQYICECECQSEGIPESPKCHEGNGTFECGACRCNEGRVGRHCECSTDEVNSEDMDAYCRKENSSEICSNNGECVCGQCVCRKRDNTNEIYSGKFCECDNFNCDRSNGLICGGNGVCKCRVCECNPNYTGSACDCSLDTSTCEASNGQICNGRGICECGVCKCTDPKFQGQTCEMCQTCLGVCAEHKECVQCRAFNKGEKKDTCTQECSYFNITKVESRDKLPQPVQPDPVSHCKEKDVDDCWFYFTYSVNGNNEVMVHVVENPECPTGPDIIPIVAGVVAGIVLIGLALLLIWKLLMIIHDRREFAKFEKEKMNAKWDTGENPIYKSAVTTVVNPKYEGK
row,SMILES,IC50 [µM]
1,"O=C(NCC1CC2(CCC2)C1)NC[C@H](NC(=O)c1c(Cl)cccc1Cl)C(=O)O [A2-178, (S)-2-(2,6-dichlorobenzamido)-3-(3-(spiro[3.3]heptan-2-ylmethyl)ureido)propanoic acid]",10 to 100
2,O=C(NC[C@H](NC(=O)c1c(Cl)cccc1Cl)C(=O)O)NCC12CC3CC(CC(C3)C1)C2 [A2-83],10 to 100
3,"O=C(NC[C@H](NC(=O)c1c(Cl)cccc1Cl)C(=O)O)NC12CCC3CC(CC(C3)C1)C2 [A2-181, (25)-2-(2,6-dichlorobenzamido)-3-(3-(tricyclo[4.3.1.13,8]undecan-3-yl)ureido)propanoic acid]",10 to 100
4,"CCC(CC)C(=O)N[C@@H](CNC(=O)NCc1ccccc1)C(=O)O [A2-38, (S)-3-(3-benzylureido)-2-(2-ethylbutanamido)propanoic acid]",> 100
5,"O=C(NC[C@H](NC(=O)c1c(Cl)cccc1Cl)C(=O)O)NC12CC3CC(C1)CC(C(F)(F)F)(C3)C2 [A2-131, (S)-2-(2,6-dichlorobenzamido)-3-(3-(3-(trifluoromethyl)adamantan-1-yl)ureido)propanoic acid]",10 to 100
6,"O=C(NC[C@H](NC(=O)c1c(Cl)cccc1Cl)C(=O)O)NC1CCC2(CC1)C1CC3CC(C1)CC2C3 (stereo partly drawn) [A2-180, (S)-2-(2,6-dichlorobenzamido)-3-(3-(spiro[adamantane-2,1′-cyclohexan]-4′-yl)ureido)propanoic acid]",10 to 100
7,"O=C(NC[C@H](NC(=O)c1c(Cl)cccc1Cl)C(=O)O)NC1CC2CCC1C2 (stereo partly drawn) [A2-172, (2S)-3-(3-(bicyclo[2.2.1]heptan-2-yl)ureido)-2-(2,6-dichlorobenzamido)propanoic acid]",< 10
8,"O=C(NC[C@H](NC(=O)c1c(Cl)cccc1Cl)C(=O)O)NC12CC3CC(C1)CC(C(=O)O)(C3)C2 [A2-143, 3-(3-((S)-2-carboxy-2-(2,6-dichlorobenzamido)ethyl)ureido)adamantane-1-carboxylic acid]",10 to 100
9,O=C(NC[C@H](NC(=O)c1c(Cl)cccc1Cl)C(=O)O)NCC12CC3CC(CC(O)(C3)C1)C2 [A2-153],10 to 100
10,"O=C(NCC1CC2CCC1C2)NC[C@H](NC(=O)c1c(Cl)cccc1Cl)C(=O)O (stereo partly drawn) [A2-174, (2S)-3-(3-(bicyclo[2.2.1]heptan-2-ylmethyl)ureido)-2-(2,6-dichlorobenzamido)propanoic acid]",10 to 100
11,"O=C(NC[C@H](NC(=O)c1c(Cl)cccc1Cl)C(=O)O)NC12CC3CC(CC(O)(C3)C1)C2 [A2-144, (S)-2-(2,6-dichlorobenzamido)-3-(3-(3-hydroxyadamantan-1-yl)ureido)propanoic acid]",10 to 100
12,"Cc1cc(C)c(C(=O)N[C@@H](CNC(=O)NCc2ccccc2)C(=O)O)c(C)c1 [A2-26, (S)-3-(3-benzylureido)-2-(2,4,6-trimethylbenzamido)propanoic acid]",10 to 100
13,O=C(NCC1CC2CCC1CC2)NC[C@H](NC(=O)c1c(Cl)cccc1Cl)C(=O)O (some centres unmarked) [A2-175],10 to 100
14,O=C(NC[C@H](NC(=O)c1c(Cl)cccc1Cl)C(=O)O)NC12CC3CC(CC(C3)C1)C2 [A2-87],10 to 100
15,"O=C(NCc1ccccc1)NC[C@H](NC(=O)c1c(F)cccc1Br)C(=O)O [A2-36, (S)-3-(3-benzylureido)-2-(2-bromo-6-fluorobenzamido)propanoic acid]",10 to 100
16,"O=C(NCc1cc(F)cc(F)c1)NC[C@H](NC(=O)c1c(Cl)cccc1Cl)C(=O)O [KZ-1-32, (S)-2-(2,6-dichlorobenzamido)-3-(3-(3,5-difluorobenzyl)ureido)propanoic acid]",> 100

# Other lines, results leading:
row,IC50 [µM],SMILES
1,> 100,"O=C(N[C@@H](CNc1nccc(-c2ccccc2)n1)C(=O)O)c1c(Cl)cccc1Cl [A2-73, (S)-2-(2,6-dichlorobenzamido)-3-((4-phenylpyrimidin-2-yl)amino)propanoic acid]"
2,10 to 100,"Cc1cccc(Cl)c1C(=O)N[C@@H](CNC(=O)NCc1ccccc1)C(=O)O [A2-35, (S)-3-(3-benzylureido)-2-(2-chloro-6-methylbenzamido)propanoic acid]"
3,> 100,"O=C(NCc1ccco1)NC[C@H](NC(=O)c1c(Cl)cccc1Cl)C(=O)O [KZ-1-17, (S)-2-(2,6-dichlorobenzamido)-3-(3-(furan-2-ylmethyl)ureido)propanoic acid]"
4,10 to 100,"O=C(NCc1ccsc1)NC[C@H](NC(=O)c1c(Cl)cccc1Cl)C(=O)O [KZ-1-38, (S)-2-(2,6-dichlorobenzamido)-3-(3-(thiophen-3-ylmethyl)ureido)propanoic acid]"
5,10 to 100,"O=C(NC[C@H](NC(=O)c1c(Cl)cccc1Cl)C(=O)O)N[C@H]1CCc2ccccc21 [A2-86, (S)-2-(2,6-dichlorobenzamido)-3-(3-((S)-2,3-dihydro-1H-inden-1-yl)ureido)propanoic acid]"
6,10 to 100,"O=C(N[C@@H](CNC(=S)NCc1ccccc1)C(=O)O)c1c(Cl)cccc1Cl [KZ-1-21, (S)-3-(3-benzylthioureido)-2-(2,6-dichlorobenzamido)propanoic acid]"
7,> 100,"O=C(NCCc1ccccc1)NC[C@H](NC(=O)c1c(Cl)cccc1Cl)C(=O)O [KZ-1-11, (S)-2-(2,6-dichlorobenzamido)-3-(3-phenethylureido)propanoic acid]"
8,< 10,"O=C(NC[C@H](NC(=O)c1c(Cl)cccc1Cl)C(=O)O)N[C@@H]1CCc2ccccc21 [A2-85, (S)-2-(2,6-dichlorobenzamido)-3-(3-((R)-2,3-dihydro-1H-inden-1-yl)ureido)propanoic acid]"
9,> 100,"CN(C)C(=O)NC[C@H](NC(=O)c1c(Cl)cccc1Cl)C(=O)O [A2-70, (S)-2-(2,6-dichlorobenzamido)-3-(3,3-dimethylureido)propanoic acid]"
10,10 to 100,"COc1cccc(CNC(=O)NC[C@H](NC(=O)c2c(Cl)cccc2Cl)C(=O)O)c1 [KZ-1-15, (S)-2-(2,6-dichlorobenzamido)-3-(3-(3-methoxybenzyl)ureido)propanoic acid]"
11,10 to 100,"Cc1cccc(CNC(=O)NC[C@H](NC(=O)c2c(Cl)cccc2Cl)C(=O)O)c1 [KZ-1-16, (S)-2-(2,6-dichlorobenzamido)-3-(3-(3-methylbenzyl)ureido)propanoic acid]"
12,10 to 100,"O=C(NCc1ccccc1Cl)NC[C@H](NC(=O)c1c(Cl)cccc1Cl)C(=O)O [KZ-1-18, (S)-3-(3-(2-chlorobenzyl)ureido)-2-(2,6-dichlorobenzamido)propanoic acid]"
13,10 to 100,"O=C(NC[C@H](NC(=O)c1c(Cl)cccc1Cl)C(=O)O)NC1Cc2ccccc2C1 [A2-84, (S)-2-(2,6-dichlorobenzamido)-3-(3-(2,3-dihydro-1H-inden-2-yl)ureido)propanoic acid]"
14,> 100,"C[C@H](NC(=O)NC[C@H](NC(=O)c1c(Cl)cccc1Cl)C(=O)O)c1ccccc1 [KZ-1-13, (S)-2-(2,6-dichlorobenzamido)-3-(3-((S)-1-phenylethyl)ureido)propanoic acid]"
15,10 to 100,"O=C(NCc1ccc(Br)cc1)NC[C@H](NC(=O)c1c(Cl)cccc1Cl)C(=O)O [KZ-1-23, (S)-3-(3-(4-bromobenzyl)ureido)-2-(2,6-dichlorobenzamido)propanoic acid]"
16,10 to 100,"Cc1ccccc1CNC(=O)NC[C@H](NC(=O)c1c(Cl)cccc1Cl)C(=O)O [KZ-1-39, (S)-2-(2,6-dichlorobenzamido)-3-(3-(2-methylbenzyl)ureido)propanoic acid]"
